Assay results: the supplement of paper PMC10307832

Tests used:
Experiment in all cases: relative viability (nuclei count vs DMSO), 5 days (fraction); higher = more cells survive
[1] = compound: Cn1cnc2c(F)c(Nc3ccc(Br)cc3Cl)c(C(=O)NOCCO)cc21 [Selumetinib] + COc1cccc2cc(-c3nc([C@H]4CC[C@H](C(=O)O)CC4)n4ncnc(N)c34)[nH]c12 [OSI-027] (partner 0.5 µM)
In short: (§1)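 Relative viability equals treated-well nuclei counts divided by vehicle-well nuclei counts. Counts came from 4× images of lung cancer cell lines grown in 1536-well plates for 5 days after pin-tool dosing on the day after seeding. Dosing used one drug alone or a fixed anchor-drug dose plus five library-drug doses (not always all listed) in √10 steps, and values are medians of duplicate plates.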

[2] = compound: CC1(C)CCC(CN2CCN(c3ccc(C(=O)NS(=O)(=O)c4ccc(NCC5CCOCC5)c([N+](=O)[O-])c4)c(Oc4cnc5[nH]ccc5c4)c3)CC2)=C(c2ccc(Cl)cc2)C1 [Venetoclax] + Nc1nc2[nH]cc(CCc3ccc(C(=O)N[C@@H](CCC(=O)O)C(=O)O)cc3)c2c(=O)[nH]1 [Pemetrexed] (partner 0.2 µM)
In short: as §1

[3] = compound: CC1(C)CCC(CN2CCN(c3ccc(C(=O)NS(=O)(=O)c4ccc(NCC5CCOCC5)c([N+](=O)[O-])c4)c(Oc4cnc5[nH]ccc5c4)c3)CC2)=C(c2ccc(Cl)cc2)C1 [Venetoclax] + C[C@@H](Oc1cc(-c2cnn(C3CCNCC3)c2)cnc1N)c1c(Cl)ccc(F)c1Cl [Crizotinib] (partner 1 µM)
In short: as §1

[4] = compound: CC1(C)CCC(CN2CCN(c3ccc(C(=O)NS(=O)(=O)c4ccc(NCC5CCOCC5)c([N+](=O)[O-])c4)c(Oc4cnc5[nH]ccc5c4)c3)CC2)=C(c2ccc(Cl)cc2)C1 [Venetoclax] + CCNC(=O)c1noc(-c2cc(C(C)C)c(O)cc2O)c1-c1ccc(CN2CCOCC2)cc1 [Luminespib] (partner 0.01 µM)
In short: as §1

Cell Line: PC-14
- relative viability ([1]; first compound 0.02 µM): 0.752
- relative viability ([1]; first compound 0.06325 µM): 0.716
- relative viability ([1]; first compound 0.2 µM): 0.73
- relative viability ([1]; first compound 0.6325 µM): 0.538
- relative viability ([2]; first compound 0.01 µM): 0.154
- relative viability ([2]; first compound 0.03162 µM): 0.135
- relative viability ([2]; first compound 0.1 µM): 0.13
- relative viability ([2]; first compound 0.3162 µM): 0.14
- relative viability ([2]; first compound 1 µM): 0.143
- relative viability ([3]; first compound 0.01 µM): 0.844
- relative viability ([3]; first compound 0.03162 µM): 0.972
- relative viability ([3]; first compound 0.1 µM): 1.06
- relative viability ([3]; first compound 0.3162 µM): 0.864
- relative viability ([3]; first compound 1 µM): 0.801
- relative viability ([4]; first compound 0.01 µM): 0.175
- relative viability ([4]; first compound 0.03162 µM): 0.122
- relative viability ([4]; first compound 0.1 µM): 0.15
- relative viability ([4]; first compound 0.3162 µM): 0.153
- relative viability ([4]; first compound 1 µM): 0.154

Cell Line: NCI-H661
- relative viability ([1]; first compound 0.02 µM): 0.804
- relative viability ([1]; first compound 0.06325 µM): 0.582
- relative viability ([1]; first compound 0.2 µM): 0.571
- relative viability ([1]; first compound 0.6325 µM): 0.57
- relative viability ([2]; first compound 0.01 µM): 0.933
- relative viability ([2]; first compound 0.03162 µM): 0.922
- relative viability ([2]; first compound 0.1 µM): 0.861
- relative viability ([2]; first compound 0.3162 µM): 0.897
- relative viability ([2]; first compound 1 µM): 0.901
- relative viability ([3]; first compound 0.01 µM): 0.987
- relative viability ([3]; first compound 0.03162 µM): 1.09
- relative viability ([3]; first compound 0.1 µM): 1.12
- relative viability ([3]; first compound 1 µM): 1.05
- relative viability ([4]; first compound 0.01 µM): 0.924
- relative viability ([4]; first compound 0.03162 µM): 0.956
- relative viability ([4]; first compound 0.1 µM): 0.894
- relative viability ([4]; first compound 0.3162 µM): 0.822
- relative viability ([4]; first compound 1 µM): 0.871

Cell Line: HCC-827
- relative viability ([1]; first compound 0.02 µM): 0.782
- relative viability ([1]; first compound 0.06325 µM): 0.751
- relative viability ([1]; first compound 0.2 µM): 0.62
- relative viability ([1]; first compound 0.6325 µM): 0.708
- relative viability ([2]; first compound 0.01 µM): 0.239
- relative viability ([2]; first compound 0.03162 µM): 0.289
- relative viability ([2]; first compound 0.1 µM): 0.25
- relative viability ([2]; first compound 0.3162 µM): 0.269
- relative viability ([2]; first compound 1 µM): 0.28
- relative viability ([3]; first compound 0.01 µM): 0.982
- relative viability ([3]; first compound 0.03162 µM): 0.923
- relative viability ([3]; first compound 0.1 µM): 0.924
- relative viability ([3]; first compound 0.3162 µM): 0.94
- relative viability ([3]; first compound 1 µM): 0.837
- relative viability ([4]; first compound 0.01 µM): 0.657
- relative viability ([4]; first compound 0.03162 µM): 0.641
- relative viability ([4]; first compound 0.1 µM): 0.237
- relative viability ([4]; first compound 0.3162 µM): 0.509
- relative viability ([4]; first compound 1 µM): 0.694

Cell Line: NCI-H1915
- relative viability ([1]; first compound 0.02 µM): 0.603
- relative viability ([1]; first compound 0.06325 µM): 0.425
- relative viability ([1]; first compound 0.2 µM): 0.33
- relative viability ([1]; first compound 0.6325 µM): 0.301
- relative viability ([2]; first compound 0.01 µM): 0.405
- relative viability ([2]; first compound 0.03162 µM): 0.499
- relative viability ([2]; first compound 0.1 µM): 0.484
- relative viability ([2]; first compound 0.3162 µM): 0.517
- relative viability ([2]; first compound 1 µM): 0.476
- relative viability ([3]; first compound 0.01 µM): 0.882
- relative viability ([3]; first compound 0.03162 µM): 0.862
- relative viability ([3]; first compound 0.1 µM): 0.811
- relative viability ([3]; first compound 0.3162 µM): 0.836
- relative viability ([3]; first compound 1 µM): 0.805
- relative viability ([4]; first compound 0.01 µM): 0.745
- relative viability ([4]; first compound 0.03162 µM): 0.808
- relative viability ([4]; first compound 0.1 µM): 0.708
- relative viability ([4]; first compound 0.3162 µM): 0.699
- relative viability ([4]; first compound 1 µM): 0.695

Cell Line: NCI-H441
- relative viability ([1]; first compound 0.02 µM): 0.593
- relative viability ([1]; first compound 0.06325 µM): 0.494
- relative viability ([1]; first compound 0.2 µM): 0.598
- relative viability ([1]; first compound 0.6325 µM): 0.517
- relative viability ([2]; first compound 0.01 µM): 0.274
- relative viability ([2]; first compound 0.03162 µM): 0.271
- relative viability ([2]; first compound 0.1 µM): 0.243
- relative viability ([2]; first compound 0.3162 µM): 0.253
- relative viability ([2]; first compound 1 µM): 0.244
- relative viability ([3]; first compound 0.01 µM): 0.845
- relative viability ([3]; first compound 0.03162 µM): 0.976
- relative viability ([3]; first compound 0.1 µM): 0.745
- relative viability ([3]; first compound 0.3162 µM): 0.679
- relative viability ([3]; first compound 1 µM): 0.71
- relative viability ([4]; first compound 0.01 µM): 0.337
- relative viability ([4]; first compound 0.03162 µM): 0.372
- relative viability ([4]; first compound 0.1 µM): 0.434
- relative viability ([4]; first compound 0.3162 µM): 0.299
- relative viability ([4]; first compound 1 µM): 0.427

Cell Line: RERF-LC-KJ
- relative viability ([1]; first compound 0.02 µM): 0.535
- relative viability ([1]; first compound 0.06325 µM): 0.477
- relative viability ([1]; first compound 0.2 µM): 0.526
- relative viability ([1]; first compound 0.6325 µM): 0.472
- relative viability ([2]; first compound 0.01 µM): 0.473
- relative viability ([2]; first compound 0.03162 µM): 0.487
- relative viability ([2]; first compound 0.1 µM): 0.45
- relative viability ([2]; first compound 0.3162 µM): 0.438
- relative viability ([2]; first compound 1 µM): 0.506
- relative viability ([3]; first compound 0.01 µM): 0.742
- relative viability ([3]; first compound 0.03162 µM): 0.872
- relative viability ([3]; first compound 0.1 µM): 1.08
- relative viability ([3]; first compound 0.3162 µM): 0.879
- relative viability ([3]; first compound 1 µM): 0.785
- relative viability ([4]; first compound 0.01 µM): 1.19
- relative viability ([4]; first compound 0.03162 µM): 1.19
- relative viability ([4]; first compound 0.1 µM): 1.22
- relative viability ([4]; first compound 0.3162 µM): 1.19
- relative viability ([4]; first compound 1 µM): 1.08

Cell Line: NCI-H3122
- relative viability ([1]; first compound 0.02 µM): 0.709
- relative viability ([1]; first compound 0.06325 µM): 0.512
- relative viability ([1]; first compound 0.2 µM): 0.417
- relative viability ([1]; first compound 0.6325 µM): 0.291
- relative viability ([2]; first compound 0.01 µM): 0.179
- relative viability ([2]; first compound 0.03162 µM): 0.2
- relative viability ([2]; first compound 0.1 µM): 0.199
- relative viability ([2]; first compound 0.3162 µM): 0.188
- relative viability ([2]; first compound 1 µM): 0.198
- relative viability ([3]; first compound 0.01 µM): 0.306
- relative viability ([3]; first compound 0.03162 µM): 0.258
- relative viability ([3]; first compound 0.1 µM): 0.269
- relative viability ([3]; first compound 0.3162 µM): 0.247
- relative viability ([3]; first compound 1 µM): 0.276
- relative viability ([4]; first compound 0.01 µM): 0.0697
- relative viability ([4]; first compound 0.03162 µM): 0.0939
- relative viability ([4]; first compound 0.1 µM): 0.105
- relative viability ([4]; first compound 0.3162 µM): 0.0864
- relative viability ([4]; first compound 1 µM): 0.101

Cell Line: NCI-H2347
- relative viability ([1]; first compound 0.02 µM): 0.412
- relative viability ([1]; first compound 0.06325 µM): 0.294
- relative viability ([1]; first compound 0.2 µM): 0.255
- relative viability ([1]; first compound 0.6325 µM): 0.177
- relative viability ([2]; first compound 0.01 µM): 0.486
- relative viability ([2]; first compound 0.03162 µM): 0.425
- relative viability ([2]; first compound 0.1 µM): 0.437
- relative viability ([2]; first compound 0.3162 µM): 0.438
- relative viability ([2]; first compound 1 µM): 0.444
- relative viability ([3]; first compound 0.01 µM): 0.74
- relative viability ([3]; first compound 0.03162 µM): 0.81
- relative viability ([3]; first compound 0.1 µM): 0.726
- relative viability ([3]; first compound 0.3162 µM): 0.533
- relative viability ([3]; first compound 1 µM): 0.677
- relative viability ([4]; first compound 0.01 µM): 0.307
- relative viability ([4]; first compound 0.03162 µM): 0.702
- relative viability ([4]; first compound 0.1 µM): 0.405
- relative viability ([4]; first compound 0.3162 µM): 0.283
- relative viability ([4]; first compound 1 µM): 0.948
